Measured values as given in patent US8604229B2, “Lipoxin analogs and methods for the treatment of periodontal disease” (University of Southern California, priority 2000, dated 2013).

Key:
[1] = system: PGE2 production; experiment: PGE2 levels in air pouch exudates (EIA) after P. gingivalis; format: in vivo, BALB/c mice
Protocol: (§1) Six to eight week old male BALB/c mice were obtained from Taconic Farms (Germantown, N.Y.). Air pouches were raised on the dorsum by s.c. injection of 3 ml of sterile air on day 0 and day 3, and all experiments were carried out on day 6 (Sin, Y. M., et al. (1986) Ann. Rheum. Dis. 45, 873). Individual air pouches (one per mouse) were injected with either vehicle alone (0.1% ethanol), with 10 μg 15-R/S-methyl-LXA4-me or with 10 μg 15-epi-16-phenoxy-LXA4-me, followed by 500 μl of sterile PBS or ˜10^5 cells of P. gingivalis strain A7436 (OD600 0.9-1.0) originally obtained from the CF of a patient diagnosed with periodontitis. Mice were sacrificed 4 hr post-injection and individual air pouches were lavaged three times with sterile PBS (3 ml for each lavage) (Sin, Y. M. et al. (1986) Ann. Rheum. Dis. 45, 873; Hachicha, M., et al. (1999) J. Exp. Med. 189, 1923). […] Air pouch exudates were assessed for PGE2 using an enzyme immunoassay (EIA) kit (Cayman Chemical Co., Ann Arbor, Mich. [cross-reactivities in the PGE2 EIA kit were <0.04% for 6-keto PGF1α and <0.01% for LTB4, thromboxane B2 and arachidonic acid]). […]
Since PGE2 is associated with loss of attachment and bone loss in periodontal disease (Offenbacher, S., et al. (1992) J. Periodontal Res. 27, 207), we determined PGE2 levels in the air pouch exudates. […] Also, the expression of COX-2 was evaluated in exudate leukocytes. […]

[2] = system: COX-2 mRNA; experiment: COX-2 expression in air pouch exudate leukocytes (northern blot); format: in vivo, BALB/c mice; details: within the air pouch, P. gingivalis-injected mice
Protocol: as §1
Since PGE2 is associated with loss of attachment and bone loss in periodontal disease (Offenbacher, S., et al. (1992) J. Periodontal Res. 27, 207), we determined PGE2 levels in the air pouch exudates. […]

CCCCCC(C)(O)/C=C/C=C\C=C\C=C\[C@@H](O)[C@@H](O)CCCC(=O)O (stereo partly drawn) [15-R/S-methyl LXA4]
decrease of PGE2 levels in the exudates ([1]; 10 μg/pouch, P. gingivalis-injected murine air pouch, 4 hr): ≤ 75%
P. gingivalis-induced PGE2 production in murine air pouch (in words) ([1]; murine air pouch exudates): inhibits
overall expression of COX-2 in exudates [2]: decreased
